Source: patent US12642805B2, “Use of oxygenated cholesterol sulfates for treating at least one of insulin resistance, diabetes, and prediabetes” (Medicis Pharmaceutical Corporation, priority 2020, dated 2026)
Like-named read-outs stand apart in the source and are kept apart here.

How the values were obtained:
[1] = test system: DNMT1/3a/3b and 9 other epigenetic enzymes; assay: epigenetic enzyme activity panel; assay type: biochemical
Text: The major epigenetic regulation includes DNA and histone methylation, demethylation, acetylation, and deacetylation. The enzymes involved in the process are DNA and histone methyltransferases/demethylases, and acetyltransferases/deacetylases.

[2] = single oral dose pharmacokinetic study in healthy and NASH subjects; assay type: in vivo, human; details: for AUC(0-t) / AUC(0-inf) / Cmax / half-life / Tmax / Vd/F: human, plasma, po
Experimental: The present Example was a randomized, dose ranging, single dose safety and pharmacokinetic study of 25HC3S administered to subjects with NASH and control healthy subjects. […] For each cohort, 10 subjects with NASH were enrolled which were further classified into cirrhotic and non-cirrhotic. Each subject received only one dose of study treatment. The second cohort was dosed after a review of safety and tolerability data from Cohort 1.

[3] = metabolite profiling of plasma, urine, feces after intravenous dose; details: rats 10 mg/kg intravenous 25HC3S
Experimental: (§1) Samples were profiled using high performance liquid chromatography with radiodetection and metabolic characterization was performed using mass spectrometry and tandem mass spectrometry analysis.

[4] = Sprague Dawley, rat, in vivo, iv, 10 mg/kg
Experimental: as §1

[5] = metabolite profiling of plasma and feces after oral dose; assay type: in vivo, rat; details: rats 75 mg/kg oral
Text: Radiolabeled components in plasma and feces extracts were profiled and identified using radio-high performance liquid chromatography (HPLC) and high performance liquid chromatography/mass spectrometry (HPLC/MS) methods.

[6] = 50 mg single oral dose, Healthy
[7] = 200 mg single oral dose, Healthy

In the case of `CC(C)CCC[C@@H](C)[C@H]1CC[C@H]2[C@@H]3CC=C4C[C@@H](O)CC[C@]4(C)[C@H]3CC[C@]12C` [Xol, Cholesterol], the “effect on enzymatic activities” value [1] is reported as “did not significantly affect enzymatic activities”.
In the case of `CC(C)CCC[C@@H](C)[C@H]1CC[C@H]2[C@@H]3CC=C4C[C@@H](OS(=O)(=O)O)CC[C@]4(C)[C@H]3CC[C@]12C` [Xol3S, Cholesterol 3-Sulfate], the “effect on enzymatic activities” value [1] is reported as “did not significantly affect enzymatic activities”.
With `C[C@H](CCCC(C)(C)O)[C@H]1CC[C@H]2[C@@H]3CC=C4C[C@@H](OS(=O)(=O)[O-])CC[C@]4(C)[C@H]3CC[C@]12C.[Na+]` [25HC3S sodium, 25-hydroxycholesterol-3-sulfate sodium] the “CL/F, Geometric Mean” value [2, 6] was 118.11 L/h, the “CL/F, Mean” value [2, 6] was 122.35 L/h and the “CL/F, Geometric Mean” value ([2]; 50 mg single oral dose, NASH) was 82.19 L/h. For the same molecule, the “CL/F, Mean” value ([2]; 50 mg single oral dose, NASH) was 85.29 L/h, the “CL/F, Geometric Mean” value [2, 7] was 169.32 L/h and the “CL/F, Mean” value [2, 7] was 171.25 L/h. The “CL/F, Geometric Mean” value ([2]; 200 mg single oral dose, NASH) was 141.66 L/h, the “CL/F, Mean” value ([2]; 200 mg single oral dose, NASH) was 143.19 L/h and the AUC(0-t) ([2]; 50 mg, 50 mg single oral dose, Healthy, read-out: AUC0-12, Geometric Mean) was 497 ng·h/mL. For the same molecule, the AUC(0-t) ([2]; 50 mg, 50 mg single oral dose, Healthy, read-out: AUC0-12, Mean) was 528 ng·h/mL, the AUC(0-t) ([2]; 50 mg, 50 mg single oral dose, Healthy, read-out: AUC0-last, Geometric Mean) was 450 ng·h/mL and the AUC(0-t) ([2]; 50 mg, 50 mg single oral dose, Healthy, read-out: AUC0-last, Mean) was 477 ng·h/mL. It also gave an AUC(0-inf) ([2]; 50 mg, 50 mg single oral dose, Healthy, read-out: AUCinf, Geometric Mean) of 423 ng·h/mL, an AUC(0-inf) ([2]; 50 mg, 50 mg single oral dose, Healthy, read-out: AUCinf, Mean) of 439 ng·h/mL and a Cmax ([2]; 50 mg, 50 mg single oral dose, Healthy, read-out: Cmax, Geometric Mean) of 90.9 ng/mL. For the same molecule, the Cmax ([2]; 50 mg, 50 mg single oral dose, Healthy, read-out: Cmax, Mean) was 94 ng/mL, the half-life ([2]; 50 mg, 50 mg single oral dose, Healthy, read-out: T1/2, Geometric Mean (converted)) was 1.89 h and the half-life ([2]; 50 mg, 50 mg single oral dose, Healthy, read-out: T1/2, Mean (converted)) was 1.91 h. It also gave a Tmax ([2]; 50 mg, 50 mg single oral dose, Healthy, read-out: Tmax, Geometric Mean) of 2.83 h, a Tmax ([2]; 50 mg, 50 mg single oral dose, Healthy, read-out: Tmax, Mean) of 3.01 h and a Vd/F ([2]; 50 mg, 50 mg single oral dose, Healthy, read-out: Vz/F, Geometric Mean) of 322 L. The Vd/F ([2]; 50 mg, 50 mg single oral dose, Healthy, read-out: Vz/F, Mean) was 325 L, the AUC(0-t) ([2]; 50 mg, 50 mg single oral dose, NASH, read-out: AUC0-12, Geometric Mean) was 598 ng·h/mL and the AUC(0-t) ([2]; 50 mg, 50 mg single oral dose, NASH, read-out: AUC0-12, Mean) was 623 ng·h/mL. For the same molecule, the AUC(0-t) ([2]; 50 mg, 50 mg single oral dose, NASH, read-out: AUC0-last, Geometric Mean) was 476 ng·h/mL, the AUC(0-t) ([2]; 50 mg, 50 mg single oral dose, NASH, read-out: AUC0-last, Mean) was 513 ng·h/mL and the AUC(0-inf) ([2]; 50 mg, 50 mg single oral dose, NASH, read-out: AUCinf, Geometric Mean) was 608 ng·h/mL. It also gave an AUC(0-inf) ([2]; 50 mg, 50 mg single oral dose, NASH, read-out: AUCinf, Mean) of 636 ng·h/mL, a Cmax ([2]; 50 mg, 50 mg single oral dose, NASH, read-out: Cmax, Geometric Mean) of 108 ng/mL and a Cmax ([2]; 50 mg, 50 mg single oral dose, NASH, read-out: Cmax, Mean) of 113 ng/mL. It also gave a half-life ([2]; 50 mg, 50 mg single oral dose, NASH, read-out: T1/2, Geometric Mean (converted)) of 1.67 h, a half-life ([2]; 50 mg, 50 mg single oral dose, NASH, read-out: T1/2, Mean (converted)) of 1.67 h and a Tmax ([2]; 50 mg, 50 mg single oral dose, NASH, read-out: Tmax, Geometric Mean) of 2.31 h. It also gave a Tmax ([2]; 50 mg, 50 mg single oral dose, NASH, read-out: Tmax, Mean) of 2.41 h, a Vd/F ([2]; 50 mg, 50 mg single oral dose, NASH, read-out: Vz/F, Geometric Mean) of 198 L and a Vd/F ([2]; 50 mg, 50 mg single oral dose, NASH, read-out: Vz/F, Mean) of 203 L. For the same molecule, the AUC(0-t) ([2]; 200 mg, 200 mg single oral dose, Healthy, read-out: AUC0-12, Geometric Mean) was 1160 ng·h/mL, the AUC(0-t) ([2]; 200 mg, 200 mg single oral dose, Healthy, read-out: AUC0-12, Mean) was 1180 ng·h/mL and the AUC(0-t) ([2]; 200 mg, 200 mg single oral dose, Healthy, read-out: AUC0-last, Geometric Mean) was 1170 ng·h/mL. For the same molecule, the AUC(0-t) ([2]; 200 mg, 200 mg single oral dose, Healthy, read-out: AUC0-last, Mean) was 1190 ng·h/mL, the AUC(0-inf) ([2]; 200 mg, 200 mg single oral dose, Healthy, read-out: AUCinf, Geometric Mean) was 1180 ng·h/mL and the AUC(0-inf) ([2]; 200 mg, 200 mg single oral dose, Healthy, read-out: AUCinf, Mean) was 1190 ng·h/mL. The Cmax ([2]; 200 mg, 200 mg single oral dose, Healthy, read-out: Cmax, Geometric Mean) was 256 ng/mL, the Cmax ([2]; 200 mg, 200 mg single oral dose, Healthy, read-out: Cmax, Mean) was 260 ng/mL and the half-life ([2]; 200 mg, 200 mg single oral dose, Healthy, read-out: T1/2, Geometric Mean (converted)) was 1.72 h. The half-life ([2]; 200 mg, 200 mg single oral dose, Healthy, read-out: T1/2, Mean (converted)) was 1.75 h, the Tmax ([2]; 200 mg, 200 mg single oral dose, Healthy, read-out: Tmax, Geometric Mean) was 2.53 h and the Tmax ([2]; 200 mg, 200 mg single oral dose, Healthy, read-out: Tmax, Mean) was 2.67 h. The Vd/F ([2]; 200 mg, 200 mg single oral dose, Healthy, read-out: Vz/F, Geometric Mean) was 420 L, the Vd/F ([2]; 200 mg, 200 mg single oral dose, Healthy, read-out: Vz/F, Mean) was 434 L and the AUC(0-t) ([2]; 200 mg, 200 mg single oral dose, NASH, read-out: AUC0-12, Geometric Mean) was 1500 ng·h/mL. For the same molecule, the AUC(0-t) ([2]; 200 mg, 200 mg single oral dose, NASH, read-out: AUC0-12, Mean) was 1540 ng·h/mL, the AUC(0-t) ([2]; 200 mg, 200 mg single oral dose, NASH, read-out: AUC0-last, Geometric Mean) was 1540 ng·h/mL and the AUC(0-t) ([2]; 200 mg, 200 mg single oral dose, NASH, read-out: AUC0-last, Mean) was 1580 ng·h/mL. It also gave an AUC(0-inf) ([2]; 200 mg, 200 mg single oral dose, NASH, read-out: AUCinf, Geometric Mean) of 1410 ng·h/mL, an AUC(0-inf) ([2]; 200 mg, 200 mg single oral dose, NASH, read-out: AUCinf, Mean) of 1430 ng·h/mL and a Cmax ([2]; 200 mg, 200 mg single oral dose, NASH, read-out: Cmax, Geometric Mean) of 319 ng/mL. For the same molecule, the Cmax ([2]; 200 mg, 200 mg single oral dose, NASH, read-out: Cmax, Mean) was 333 ng/mL, the half-life ([2]; 200 mg, 200 mg single oral dose, NASH, read-out: T1/2, Geometric Mean (converted)) was 2.2 h and the half-life ([2]; 200 mg, 200 mg single oral dose, NASH, read-out: T1/2, Mean (converted)) was 2.51 h. The Tmax ([2]; 200 mg, 200 mg single oral dose, NASH, read-out: Tmax, Geometric Mean) was 2.65 h, the Tmax ([2]; 200 mg, 200 mg single oral dose, NASH, read-out: Tmax, Mean) was 2.91 h and the Vd/F ([2]; 200 mg, 200 mg single oral dose, NASH, read-out: Vz/F, Geometric Mean) was 449 L. For the same molecule, the Vd/F ([2]; 200 mg, 200 mg single oral dose, NASH, read-out: Vz/F, Mean) was 540 L.
With `C[C@@H](CO)CCC[C@@H](C)[C@H]1CC[C@H]2[C@@H]3CC=C4C[C@@H](O)CC[C@]4(C)[C@H]3CC[C@]12C` [27HC, 27-Hydroxycholesterol] the “effect on enzymatic activities” value [1] was “no effect on other enzymes”.
With desmosterol sulfate the “detection in plasma, urine, or feces samples” value [3] was “Neither desmosterol sulfate nor 25-hydroxycholesterol was detected”.
For `C[C@H](CCCC(C)(C)O)[C@H]1CC[C@H]2[C@@H]3CC=C4C[C@@H](O)CC[C@]4(C)[C@H]3CC[C@]12C` [25HC, 25-Hydroxycholesterol, reference compound], the “detection in plasma, urine, or feces samples” value [4] was “Neither desmosterol sulfate nor 25-hydroxycholesterol was detected”, the “relative observed intensity (ROI) in plasma” value ([5]; 2 hour post-dose) was 37% and the “% of total dose in feces” value ([5]; pools 0 to 168 hours) was 1.9%.
